Results taken from paper PMC12752627, “Discovery of a Potent and Selective TEAD Degrader with Durable Degradation Activity” (Advanced Science, 2025).

Tested on: 867 cancer cell lines
Experiment: PRISM assay (barcoded cell line screening, 5 days);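 note: top test concentration 10 mM in eight-point dilution series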
Assay type: cell-based
Design: KG-FP-003-AUC: scale not given here
Experimental: The principle of the PRISM assay has been described elsewhere and was conducted as previously outlined by the PRISM team at the Broad Institute.^[ [14], [31] ^] In PRISM (MTS027) experiments, KG‐FP‐003 was tested across 867 different cancer cell lines. Cells were treated with eight concentration gradients, ranging from 4.6 nM to […], in triplicate dilutions over a period of five days. Each plate was treated with 20 µM bortezomib as a positive control and DMSO as a negative control. Three replicate experiments were performed for each compound. The resulting data were analyzed using GraphPad PRISM 9.5.

CNC(=O)c1cc2c(c(F)c1-c1c(Cl)c(F)cc3c1C[C@@](CN[C@H]1CC[C@H](C(=O)N4CCC(CC5CCN(C(=O)COc6ccc(N7CCC(=O)NC7=O)c(C)c6)CC5)CC4)CC1)(c1ccccc1)O3)[C@@H](O)[C@@H](C)C2 [KG-FP-003]
KG-FP-003-AUC (42MGBA_CENTRAL_NERVOUS_SYSTEM ACH-000323 PR500): 0.75
KG-FP-003-AUC (639V_URINARY_TRACT ACH-000973 PR500): 0.67
KG-FP-003-AUC (647V_URINARY_TRACT ACH-000896 PR500): 0.66
KG-FP-003-AUC (697_HAEMATOPOIETIC_AND_LYMPHOID_TISSUE ACH-000070 PR300): 0.90
KG-FP-003-AUC (769P_KIDNEY ACH-000411 PR500): 0.78
KG-FP-003-AUC (786O_KIDNEY ACH-000649 PR500): 0.96
KG-FP-003-AUC (5637_URINARY_TRACT ACH-000905 PR500): 0.63
KG-FP-003-AUC (8305C_THYROID ACH-001306 PR500): 0.73
KG-FP-003-AUC (8505C_THYROID ACH-001307 PR500): 0.68
KG-FP-003-AUC (CBAGPN_BONE ACH-001022 PR300): 0.91
KG-FP-003-AUC (CCFSTTG1_CENTRAL_NERVOUS_SYSTEM ACH-000329 PR500): 1.00
KG-FP-003-AUC (CCK81_LARGE_INTESTINE ACH-000963 PR300): 1.00
KG-FP-003-AUC (CCLFPEDS0003T_SOFT_TISSUE ACH-001164 PR300): 1.00
KG-FP-003-AUC (CCLP1_BILIARY_TRACT ACH-001959 PR300): 0.63
KG-FP-003-AUC (CCSW1_BILIARY_TRACT ACH-001960 PR300): 0.99
KG-FP-003-AUC (CFPAC1_PANCREAS ACH-000138 PR500): 0.95
KG-FP-003-AUC (CH157MN_CENTRAL_NERVOUS_SYSTEM ACH-000025 PR300): 0.77
KG-FP-003-AUC (CHAGOK1_LUNG ACH-000867 PR300): 0.78
KG-FP-003-AUC (CHL1_SKIN ACH-001024 PR500): 1.00
KG-FP-003-AUC (CHLA06ATRT_SOFT_TISSUE ACH-001028 PR300): 0.99
KG-FP-003-AUC (CHLA10_BONE ACH-001029 PR300): 0.99
KG-FP-003-AUC (CHLA15_AUTONOMIC_GANGLIA ACH-001300 PR300): 0.98
KG-FP-003-AUC (CHLA57_BONE ACH-001033 PR300): 0.75
KG-FP-003-AUC (CHLA200_CENTRAL_NERVOUS_SYSTEM ACH-001293 PR300): 0.99
KG-FP-003-AUC (CJM_SKIN ACH-000458 PR500): 0.54
KG-FP-003-AUC (CL11_LARGE_INTESTINE ACH-000249 PR300): 1.00
KG-FP-003-AUC (CL34_LARGE_INTESTINE ACH-000895 PR500): 0.99
KG-FP-003-AUC (CMLT1_HAEMATOPOIETIC_AND_LYMPHOID_TISSUE ACH-000920 PR300): 0.82
KG-FP-003-AUC (COGAR359_SOFT_TISSUE ACH-001289 PR300): 0.62
KG-FP-003-AUC (COGE352_BONE ACH-001038 PR300): 0.85
KG-FP-003-AUC (COGN278_AUTONOMIC_GANGLIA ACH-001301 PR300): 1.00
KG-FP-003-AUC (COLO320_LARGE_INTESTINE ACH-000202 PR300): 0.97
KG-FP-003-AUC (COLO668_LUNG ACH-000803 PR500): 1.00
KG-FP-003-AUC (COLO679_SKIN ACH-000805 PR500): 0.97
KG-FP-003-AUC (COLO680N_OESOPHAGUS ACH-000717 PR500): 0.91
KG-FP-003-AUC (COLO741_SKIN ACH-000582 PR500): 1.00
KG-FP-003-AUC (COLO783_SKIN ACH-000812 PR500): 0.85
KG-FP-003-AUC (COLO792_SKIN ACH-000968 PR500): 0.98
KG-FP-003-AUC (COLO800_SKIN ACH-000401 PR500): 0.99
KG-FP-003-AUC (CORL23_LUNG ACH-000662 PR500): 0.99
KG-FP-003-AUC (CORL88_LUNG ACH-000508 PR300): 0.94
KG-FP-003-AUC (CORL105_LUNG ACH-000161 PR500): 0.95
KG-FP-003-AUC (CORL279_LUNG ACH-000257 PR300): 0.80
KG-FP-003-AUC (COV318_OVARY ACH-000256 PR300): 0.82
KG-FP-003-AUC (COV362_OVARY ACH-000278 PR500): 0.94
KG-FP-003-AUC (COV434_OVARY ACH-000123 PR500): 0.90
KG-FP-003-AUC (COV644_OVARY ACH-000608 PR300): 0.68
KG-FP-003-AUC (CW2_LARGE_INTESTINE ACH-000998 PR300): 1.00
KG-FP-003-AUC (CW9019_SOFT_TISSUE ACH-001050 PR300): 0.68
PRISM AUC (Cell line: A172, 5 days): 0.43
PRISM AUC (Cell line: ES2, 5 days): 0.62
PRISM AUC (Cell line: HOS, 5 days): 0.53
PRISM AUC (Cell line: KLE, 5 days): 0.53
